Measured values reported in paper PMC4809498, “Artonin E Induces Apoptosis via Mitochondrial Dysregulation in SKOV-3 Ovarian Cancer Cells” (PLoS ONE, 2016).
Converted amounts (≈) assume the structure as drawn.

Tests used:
[1] = tested on: SKOV-3 cells; assay: MTT cell viability assay, SKOV-3; format: cell-based, human; settings: SKOV-3, MTT; for IC50: Homo sapiens
Protocol: (§1) Metastatic ovarian adenocarcinoma (SKOV-3) and normal Chinese hamster ovary (CHO) cell lines were originally obtained from the American Type Culture Collection (ATCC; Manassas, VA). SKOV-3 cells were cultured in McCoy’s 5A medium and CHO cells were cultured in F12K medium. A human periodontal ligament fibroblast cell line was purchased from Lonza, USA and maintained in stroma cell basal medium. T1074 (normal immortalized human ovarian surface epithelial cell line) was originally purchased from Applied Biological Materials (abm®) Canada and cultured in Prigrow 1 medium.
(§2) The inhibitory effects of artonin E and two positive controls paclitaxel and carboplatin were examined by MTT assay. Cells at a density of 5×10^3cells/well were placed in a 96-well plate and left for 24 h to attach. The attached cells were exposed to artonin E, paclitaxel, and carboplatin at different concentrations and incubated for 24, 48, and 72 h. Subsequently, 20 μL of 5 mg/mL MTT solution was added after drug treatment and the resulting mixture was incubated for 4 h to form purple formazan. Afterward, 100 μL of dimethyl sulfoxide (DMSO) was transferred into each well to dissolve the purple formazan, and results were measured using a microplate reader (Tecan Infinite M 200 PRO, Männedorf, Switzerland) at an absorbance of 570 nm. The half-maximal concentrations that caused cell growth inhibition (IC50 values) were obtained from the MTT viability growth curve.

[2] = tested on: T1074 cells; assay: MTT cell viability assay, T1074; format: cell-based, human; settings: for IC50: Homo sapiens
Protocol: as §1, §2

Structure (SMILES) | IC50 ([1]; SK-OV-3, 24 h, 24 h treatment) [µg/mL] | IC50 ([1]; SK-OV-3, 48 h, 48 h treatment) [µg/mL] | IC50 ([1]; SK-OV-3, 72 h, 72 h treatment) [µg/mL] | IC50 ([2]; 24 h treatment) [µg/mL] | IC50 ([2]; 48 h treatment) [µg/mL] | IC50 ([2]; 72 h treatment) [µg/mL] | IC50 values ([1]; 24 h treatment) [µg/mL] | IC50 values ([1]; 48 h treatment) [µg/mL] | IC50 values ([1]; 72 h treatment) [µg/mL] | IC50 values ([2]; 24 h treatment) [µg/mL] | IC50 values ([2]; 48 h treatment) [µg/mL] | IC50 values ([2]; 72 h treatment) [µg/mL]
CC(=O)O[C@H]1C(=O)[C@@]2(C)[C@H]([C@H](OC(=O)c3ccccc3)[C@]3(O)C[C@H](OC(=O)[C@H](O)[C@@H](NC(=O)c4ccccc4)c4ccccc4)C(C)=C1C3(C)C)[C@]1(OC(C)=O)CO[C@@H]1C[C@@H]2O [Paclitaxel, paclitaxel] | 4.6 ± 0.28 (≈ 5.39 µM) | 2.5 ± 0.2 (≈ 2.93 µM) | 0.8 ± 0.2 (≈ 0.937 µM) | > 50 | 49.3 ± 0.76 (≈ 57.7 µM) | 30.5 ± 0.5 (≈ 35.7 µM) | – | – | – | – | – | –
N.N.O=C([O-])C1(C(=O)[O-])CCC1.[Pt+2] [Carboplatin, carboplatin] | – | – | – | – | – | – | 15.1 ± 0.36 | 10.5 ± 0.5 | 7.2 ± 0.25 | 45.6 ± 0.57 | 25.8 ± 0.28 | 10.8 ± 0.7
